Measured values from US9216998B2, “Tricyclic indole derivatives useful endothelial lipase inhibitors” (Janssen Pharmaceutica, NV, priority 2012, dated 2015).
pIC50: −log10 of the molar value.

Columns and labels:
[1] = molecular target: human endothelial lipase (EL) (Homo sapiens (Human), UniProt Q9Y5X9); assay: Endothelial lipase assay, cell surface lipase activity (human EL); type: cell-based; conditions: cells expressing human EL, PLA1 substrate 10 μM, fluorescence rate
Description: (§1) To assay for cell surface lipase activity, cells expressing human endothelial lipase (EL) or LPL were plated in CellBIND® 384-well plates (Corning, Lowell, Mass.) in 25 μL serum free medium at a density of 2000 cells/well. After 18-24 hours incubation at 37° C., the medium was removed and replaced with 15 μL assay buffer [Hank's Buffered Saline Solution with 25 mM HEPES pH 7.2] and 15 μL PLA1 substrate for a final concentration of 10 μM using a Multidrop reagent dispenser. Fluorescence signal was monitored for 30 min at 37° C. on a Safire II plate reader in kinetic mode (60 cycles, kinetic interval: 30 seconds) with an excitation wavelength of 490 nm and an emission wavelength of 515 nm. […] The amount of BODIPY-labeled product generated was calculated at the 30 min time point as determined from standard curve analysis of purified BODIPY FL C5.

[2] = molecular target: Mouse EL (Mus musculus (Mouse), UniProt Q9WVG5); assay: Endothelial lipase assay, cell surface lipase activity (mouse EL); type: cell-based; conditions: PLA1 substrate 10 μM, fluorescence rate
Sequence of Mouse EL (Q9WVG5 21-500): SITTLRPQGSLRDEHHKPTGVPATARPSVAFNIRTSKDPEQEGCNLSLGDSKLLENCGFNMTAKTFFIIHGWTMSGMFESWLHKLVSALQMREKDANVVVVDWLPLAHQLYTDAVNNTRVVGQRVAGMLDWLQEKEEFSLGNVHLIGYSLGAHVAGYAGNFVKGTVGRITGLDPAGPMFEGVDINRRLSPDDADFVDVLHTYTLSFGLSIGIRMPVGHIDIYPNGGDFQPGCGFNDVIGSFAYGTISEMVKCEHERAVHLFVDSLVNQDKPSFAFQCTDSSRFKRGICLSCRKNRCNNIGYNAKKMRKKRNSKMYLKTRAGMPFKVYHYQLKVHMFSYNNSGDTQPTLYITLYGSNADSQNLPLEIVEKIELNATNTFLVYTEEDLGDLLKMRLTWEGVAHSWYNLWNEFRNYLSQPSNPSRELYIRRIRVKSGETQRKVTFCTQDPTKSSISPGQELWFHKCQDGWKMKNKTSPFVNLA
Description: [The source words this procedure for another species and reports this species under the same test.] as §1

Sequence of human endothelial lipase (EL) (Q9Y5X9 21-500): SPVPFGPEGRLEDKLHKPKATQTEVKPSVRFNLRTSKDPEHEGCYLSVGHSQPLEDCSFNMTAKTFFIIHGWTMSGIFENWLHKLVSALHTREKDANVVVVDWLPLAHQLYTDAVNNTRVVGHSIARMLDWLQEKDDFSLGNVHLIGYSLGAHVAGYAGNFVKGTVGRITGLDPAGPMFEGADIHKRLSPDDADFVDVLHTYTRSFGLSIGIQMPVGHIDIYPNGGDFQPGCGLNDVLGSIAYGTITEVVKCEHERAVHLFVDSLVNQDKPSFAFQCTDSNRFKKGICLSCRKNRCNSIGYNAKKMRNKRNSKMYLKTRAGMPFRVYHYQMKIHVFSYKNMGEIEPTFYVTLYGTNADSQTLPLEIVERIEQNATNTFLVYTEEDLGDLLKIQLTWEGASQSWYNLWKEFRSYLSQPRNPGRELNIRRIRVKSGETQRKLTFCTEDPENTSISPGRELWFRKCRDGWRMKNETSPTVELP

SMILES	pIC50 [1]	pIC50 [2]
FC(F)(F)c1c(CCCc2ccccc2)n2c3c(cccc13)CC2 [Compound 1]	6.73	6.71
FC(F)(F)c1c(CCc2ccccc2)n2c3c(cccc13)CCC2 [Compound 2, 2-Phenethyl-1-(trifluoromethyl)-5,6-dihydro-4H-pyrrolo[3,2,1-ij]quinoline, reference compound]	7.66	7.32
FC(F)(F)c1c(Cc2ccccc2)n2c3c(cccc13)CCC2 [Compound 3]	6.94	7.02
FC(F)(F)c1c(CCCc2ccccc2)n2c3c(cccc13)CCC2 [Compound 4]	6.84	6.69
COc1cc2c3c(c1)c(C(F)(F)F)c(CCc1ccccc1)n3CCC2 [Compound 5]	7.85	7.77
Oc1cc2c3c(c1)c(C(F)(F)F)c(CCc1ccccc1)n3CCC2 [Compound 6]	7.15	6.87
FC(F)(F)c1c(CCc2ccccc2)n2c3c(cccc13)CCCC2 [Compound 9, 2-phenethyl-1-(trifluoromethyl)-4,5,6,7-tetrahydroazepino[3,2,1-hi]indole]	7.37	7.44
FC(F)(F)c1c(CCCc2ccccc2)n2c3c(cccc13)CCCC2 [Compound 11]	6.44	5.92
CC(C)NC(=O)N1CCn2c(CCc3ccccc3)c(C(F)(F)F)c3cccc(c32)C1 [Compound 12, N-isopropyl-6-phenethyl-7-(trifluoromethyl)-3,4-dihydro-[1,4]diazepino[6,7,1-hi]indole-2(1H)-carboxamide]	6.87	6.88
CC(C)(C)OC(=O)N1CCn2c(CCc3ccccc3)c(C(F)(F)F)c3cccc(c32)C1 [Compound 13, tert-butyl 6-phenethyl-7-(trifluoromethyl)-3,4-dihydro-[1,4]diazepino[6,7,1-hi]indole-2(1H)-carboxylate]	6.82	6.91
O=C(Nc1ccccc1)N1CCn2c(CCc3ccccc3)c(C(F)(F)F)c3cccc(c32)C1 [Compound 14, 6-phenethyl-N-phenyl-7-(trifluoromethyl)-3,4-dihydro-[1,4]diazepino[6,7,1-hi]indole-2(1H)-carboxamide]	6.77	6.79
FC(F)(F)c1c(CCc2ccccc2)n2c3c(cccc13)CNCC2 [Compound 15, 6-phenethyl-7-(trifluoromethyl)-1,2,3,4-tetrahydro-[1,4]diazepino[6,7,1-hi]indole]	6.16	6.17
CN(C)CC(=O)N1CCn2c(CCc3ccccc3)c(C(F)(F)F)c3cccc(c32)C1 [Compound 16, 2-(dimethylamino)-1-(6-phenethyl-7-(trifluoromethyl)-3,4-dihydro-[1,4]diazepino[6,7,1-hi]indol-2(1H)-yl)ethanone]	6.02	6.00
N=C(N)N1CCn2c(CCc3ccccc3)c(C(F)(F)F)c3cccc(c32)C1 [Compound 17, 6-phenethyl-7-(trifluoromethyl)-3,4-dihydro-[1,4]diazepino[6,7,1-hi]indole-2(1H)-carboximidamide]	5.32	5.44
NCC(=O)N1CCn2c(CCc3ccccc3)c(C(F)(F)F)c3cccc(c32)C1 [Compound 18, 2-amino-1-(6-phenethyl-7-(trifluoromethyl)-3,4-dihydro-[1,4]diazepino[6,7,1-hi]indol-2(1H)-yl)ethanone]	5.70	5.72
CC(=O)OCC(=O)N1CCn2c(CCc3ccccc3)c(C(F)(F)F)c3cccc(c32)C1 [Compound 20, 2-oxo-2-(6-phenethyl-7-(trifluoromethyl)-3,4-dihydro-[1,4]diazepino[6,7,1-hi]indol-2(1H)-yl)ethyl acetate]	6.35	6.32
O=C(CC(F)(F)F)N1CCn2c(CCc3ccccc3)c(C(F)(F)F)c3cccc(c32)C1 [Compound 21, 3,3,3-trifluoro-1-(6-phenethyl-7-(trifluoromethyl)-3,4-dihydro-[1,4]diazepino[6,7,1-hi]indol-2(1H)-yl)propan-1-one]	6.59	6.63
OCCN1CCn2c(CCc3ccccc3)c(C(F)(F)F)c3cccc(c32)C1 [Compound 23, 2-(6-phenethyl-7-(trifluoromethyl)-3,4-dihydro-[1,4]diazepino[6,7,1-hi]indol-2(1H)-yl)ethanol]	6.55	6.46
CS(=O)(=O)N1CCn2c(CCc3ccccc3)c(C(F)(F)F)c3cccc(c32)C1 [Compound 24, 2-(methylsulfonyl)-6-phenethyl-7-(trifluoromethyl)-1,2,3,4-tetrahydro-[1,4]diazepino[6,7,1-hi]indole]	6.73	6.47
FC(F)(F)c1c(CCc2ccccc2)n2c3c(cccc13)OCC2 [Compound 25, 5-phenethyl-6-(trifluoromethyl)-2,3-dihydro-[1,4]oxazino[2,3,4-hi]indole]	7.41	7.51
FC(F)(F)c1c(CCCc2ccccc2)n2c3c(cccc13)OCC2 [Compound 26]	6.38	6.21
FC(F)(F)c1c(CCCOc2ccccc2)n2c3c(cccc13)OCC2 [Compound 27]	7.09	6.97
FC(F)(F)c1c(CCCc2ccccc2)n2c3c(cccc13)SCC2 [Compound 28]	4.48	4.48
